Test results published in ChEMBL document CHEMBL1201862, “PubChem BioAssay data set” (2004).
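Protocol summary: plate cells (96-well), add compound at 5 concentrations, incubate 48 h, interpolate endpoints linearly. Abbreviation: GI50, concentration required for 50% inhibition of growth.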 Calls of active or inactive are those of the source. Cut-off read from the data, not from the text of the source: active = GI50 up to about 1.1 µM and inactive = higher.

Tests used:
Experiment in all cases: inhibition of tumour cell growth, NCI panel, 48 h
ACHN = test system: ACHN
CAKI-1 = test system: CAKI-1
HOP-92 = test system: HOP-92
K562 = test system: K562
M14 = test system: M14
MDA-MB-231 = test system: MDA-MB-231
Malme-3M = test system: Malme-3M
NCI-H522 = test system: NCI-H522
OVCAR-3 = test system: OVCAR-3
SF-268 = test system: SF-268
SF-295 = test system: SF-295
SK-MEL-2 = test system: SK-MEL-2
SK-MEL-5 = test system: SK-MEL-5
SK-OV-3 = test system: SK-OV-3
SN12C = test system: SN12C
SNB-75 = test system: SNB-75
T47D = test system: T47D
UACC-257 = test system: UACC-257
UACC-62 = test system: UACC-62
RPMI-8226 = test system: RPMI-8226

Measured: GI50

CCCCCCCCC/C=C1/CC(CO)(COC(=O)c2ccccc2)OC1=O (stereo unspecified)
inactive: ACHN 12.4 µM | CAKI-1 12.2 µM | HOP-92 1.61 µM | K562 3.89 µM | M14 14 µM | MDA-MB-231 12.6 µM | Malme-3M 6.92 µM | NCI-H522 13.7 µM | OVCAR-3 16.7 µM | SF-268 15.7 µM | SF-295 10 µM | SK-MEL-2 16.3 µM | SK-MEL-5 3.78 µM | SK-OV-3 18.6 µM | SN12C 12.5 µM | SNB-75 10.2 µM | T47D 11.5 µM | UACC-257 14.2 µM | UACC-62 14.7 µM

O=C1NC2c3c(I)sc(I)c3C(O)C2O1 (stereo unspecified)
inactive: ACHN > 100 µM | CAKI-1 > 100 µM | HOP-92 > 100 µM | K562 > 100 µM | M14 > 100 µM | MDA-MB-231 > 100 µM | Malme-3M > 100 µM | OVCAR-3 > 100 µM | RPMI-8226 > 100 µM | SF-268 > 100 µM | SF-295 > 100 µM | SK-MEL-2 > 100 µM | SK-OV-3 > 100 µM | SN12C > 100 µM | SNB-75 > 100 µM | T47D > 100 µM | UACC-257 > 100 µM | UACC-62 > 100 µM

COc1ccc(/C=C/NC=O)cc1
inactive: ACHN > 100 µM | K562 > 100 µM | M14 > 100 µM | MDA-MB-231 89.5 µM | Malme-3M > 100 µM | NCI-H522 > 100 µM | OVCAR-3 > 100 µM | RPMI-8226 > 100 µM | SF-268 > 100 µM | SF-295 > 100 µM | SK-MEL-2 > 100 µM | SK-MEL-5 > 100 µM | SK-OV-3 > 100 µM | SN12C > 100 µM | SNB-75 18.1 µM | T47D > 100 µM | UACC-257 > 100 µM | UACC-62 > 100 µM

COP(=O)(OC)/C(=C\c1cn(C(c2ccccc2)(c2ccccc2)c2ccccc2)cn1)NC(C)=O
inactive: ACHN > 100 µM | CAKI-1 > 100 µM | HOP-92 > 100 µM | K562 51.8 µM | M14 > 100 µM | MDA-MB-231 > 100 µM | Malme-3M > 100 µM | NCI-H522 > 100 µM | OVCAR-3 > 100 µM | SF-268 > 100 µM | SF-295 > 100 µM | SK-OV-3 > 100 µM | SN12C > 100 µM | SNB-75 > 100 µM | T47D > 100 µM | UACC-257 62.5 µM | UACC-62 > 100 µM

Cc1cc(N(CCC#N)CCC#N)ccc1C(/N=N/c1ccc([N+](=O)[O-])cc1)=N\NC(=O)c1cc(Cl)ccc1C(=O)c1ccccc1
inactive: ACHN 12.2 µM | CAKI-1 12.5 µM | K562 9.84 µM | M14 17.5 µM | MDA-MB-231 11.2 µM | Malme-3M 13.2 µM | NCI-H522 1.87 µM | OVCAR-3 4.86 µM | RPMI-8226 11 µM | SF-268 6.07 µM | SF-295 14.5 µM | SK-MEL-2 11.1 µM | SK-MEL-5 12 µM | SK-OV-3 13.5 µM | SN12C 19.3 µM | SNB-75 24.6 µM | T47D 5.18 µM | UACC-257 32.2 µM | UACC-62 11.1 µM

O=S(=O)(c1ccccc1)c1ccc(-c2nc(-c3ccc4c(c3)Sc3ccccc3S4)cs2)cc1
inactive: ACHN 38.7 µM | CAKI-1 > 100 µM | HOP-92 20.7 µM | K562 69 µM | M14 36.1 µM | MDA-MB-231 20.5 µM | Malme-3M 39.5 µM | OVCAR-3 > 100 µM | RPMI-8226 > 100 µM | SF-268 26.7 µM | SF-295 16.5 µM | SK-OV-3 18.9 µM | SN12C > 100 µM | SNB-75 10.8 µM | T47D 61.8 µM | UACC-257 > 100 µM | UACC-62 25.6 µM

C[C@]12CC[C@H]3[C@@H](CCC4=CC(=O)CC[C@@]43C)[C@]1(O)CC[C@]2(O)C(=O)CO
inactive: ACHN > 100 µM | CAKI-1 > 100 µM | K562 > 100 µM | M14 > 100 µM | MDA-MB-231 > 100 µM | Malme-3M > 100 µM | NCI-H522 > 100 µM | OVCAR-3 > 100 µM | RPMI-8226 > 100 µM | SF-268 > 100 µM | SF-295 > 100 µM | SK-MEL-2 > 100 µM | SK-MEL-5 > 100 µM | SK-OV-3 > 100 µM | SN12C > 100 µM | SNB-75 > 100 µM | T47D > 100 µM | UACC-257 > 100 µM | UACC-62 > 100 µM

Br[C@@H]1[C@H]2c3nc4ccccc4nc3[C@@H]1C[C@H]2Br
inactive: ACHN > 100 µM | CAKI-1 > 100 µM | HOP-92 41.2 µM | K562 47.5 µM | M14 > 100 µM | MDA-MB-231 > 100 µM | Malme-3M > 100 µM | NCI-H522 54.8 µM | OVCAR-3 76.9 µM | SF-268 > 100 µM | SF-295 74.3 µM | SK-MEL-5 26.5 µM | SK-OV-3 > 100 µM | SN12C > 100 µM | T47D 36.8 µM | UACC-257 83.6 µM | UACC-62 > 100 µM

COc1ccc(C2c3cc4c(cc3C(O)C3CCC(=O)N23)OCO4)cc1 (stereo unspecified)
inactive: ACHN > 100 µM | CAKI-1 > 100 µM | HOP-92 > 100 µM | K562 > 100 µM | M14 > 100 µM | Malme-3M > 100 µM | NCI-H522 > 100 µM | OVCAR-3 > 100 µM | RPMI-8226 > 100 µM | SF-268 > 100 µM | SF-295 > 100 µM | SK-MEL-2 > 100 µM | SK-MEL-5 > 100 µM | SK-OV-3 > 100 µM | SN12C > 100 µM | SNB-75 82.2 µM | T47D > 100 µM | UACC-257 > 100 µM | UACC-62 > 100 µM

CNc1ncnc2c1ncn2C1C=CC(COS(N)(=O)=O)C1 (stereo unspecified)
inactive: ACHN > 100 µM | CAKI-1 > 100 µM | HOP-92 > 100 µM | K562 > 100 µM | M14 > 100 µM | Malme-3M > 100 µM | NCI-H522 > 100 µM | OVCAR-3 > 100 µM | RPMI-8226 > 100 µM | SF-268 > 100 µM | SF-295 > 100 µM | SK-MEL-2 > 100 µM | SK-MEL-5 > 100 µM | SK-OV-3 > 100 µM | SN12C > 100 µM | SNB-75 > 100 µM | T47D > 100 µM | UACC-257 > 100 µM | UACC-62 > 100 µM

CN(C)c1ccc(C=C2N=C(c3ccccc3)N(c3cc(C(=O)c4ccccc4)ccc3N3C(=O)/C(=C/c4ccc(N(C)C)cc4)N=C3c3ccccc3)C2=O)cc1
inactive: ACHN 6.31 µM | CAKI-1 14 µM | HOP-92 > 100 µM | K562 3.95 µM | M14 4.95 µM | MDA-MB-231 14.1 µM | OVCAR-3 2.12 µM | RPMI-8226 3.01 µM | SF-268 14.4 µM | SF-295 3.76 µM | SK-MEL-2 3.29 µM | SK-MEL-5 3.42 µM | SK-OV-3 4.75 µM | SN12C 58.7 µM | SNB-75 4.78 µM | T47D 5.65 µM | UACC-257 6.43 µM | UACC-62 4.24 µM

Oc1nnnc2c1sc1ncccc12
inactive: ACHN > 100 µM | CAKI-1 > 100 µM | HOP-92 47.8 µM | K562 > 100 µM | M14 > 100 µM | MDA-MB-231 68.2 µM | Malme-3M > 100 µM | NCI-H522 > 100 µM | OVCAR-3 > 100 µM | SF-268 > 100 µM | SF-295 > 100 µM | SK-MEL-2 > 100 µM | SK-MEL-5 > 100 µM | SK-OV-3 85.1 µM | SN12C > 100 µM | SNB-75 25.1 µM | T47D > 100 µM | UACC-257 > 100 µM | UACC-62 > 100 µM

Cc1cn(C2CC(N=[N+]=[N-])C(CO[Si](C)(C)C(C)(C)C)O2)c(=O)[nH]c1=O (stereo unspecified)
inactive: ACHN 21.8 µM | CAKI-1 16.4 µM | K562 20.8 µM | M14 21.4 µM | MDA-MB-231 13.6 µM | Malme-3M 14.3 µM | NCI-H522 16.8 µM | OVCAR-3 16.9 µM | RPMI-8226 17.9 µM | SF-268 19.5 µM | SF-295 17.3 µM | SK-MEL-2 15.2 µM | SK-MEL-5 18.5 µM | SK-OV-3 18.4 µM | SN12C 15.6 µM | SNB-75 19.3 µM | T47D 29.4 µM | UACC-257 21.6 µM | UACC-62 14.6 µM

O=C(Cn1c2ccc(Br)cc2c2nc3ccccc3nc21)N1CCOCC1
inactive: ACHN > 100 µM | CAKI-1 > 100 µM | HOP-92 12.8 µM | K562 > 100 µM | M14 > 100 µM | MDA-MB-231 63.5 µM | Malme-3M > 100 µM | OVCAR-3 > 100 µM | RPMI-8226 > 100 µM | SF-268 > 100 µM | SF-295 > 100 µM | SK-MEL-2 > 100 µM | SK-MEL-5 > 100 µM | SK-OV-3 > 100 µM | SN12C > 100 µM | SNB-75 22.1 µM | T47D 25.5 µM | UACC-257 > 100 µM | UACC-62 > 100 µM

CC1=NN(c2nc(N)nc(CSc3cc(Cl)c(C)cc3S(N)(=O)=O)n2)C(C)(C)C1
inactive: ACHN > 10 µM | CAKI-1 > 10 µM | K562 > 10 µM | M14 > 10 µM | MDA-MB-231 > 10 µM | Malme-3M > 10 µM | NCI-H522 > 10 µM | OVCAR-3 > 10 µM | RPMI-8226 > 10 µM | SF-268 > 10 µM | SF-295 > 10 µM | SK-MEL-2 > 10 µM | SK-MEL-5 > 10 µM | SK-OV-3 > 10 µM | SN12C > 10 µM | SNB-75 > 10 µM | T47D > 10 µM | UACC-257 > 10 µM | UACC-62 > 10 µM
